According to DBAASP:
Values after ≈ are worked out from the molar mass of the structure shown.

Tests used:
Assay in all cases: ≥ marks a high value that may be exact or a test limit, other limits are often not marked, values filed in µg/mL are converted to µM
[1] = tested on: Aspergillus fumigatus KCTC 6145
Escherichia coli = tested on: Escherichia coli
Saccharomyces cerevisiae = tested on: Saccharomyces cerevisiae
Staphylococcus aureus = tested on: Staphylococcus aureus
[2] = tested on: Listeria monocytogenes KCTC 3710
Fusarium verticillioides = tested on: Fusarium verticillioides
Bacillus subtilis = tested on: Bacillus subtilis
[3] = tested on: Staphylococcus epidermidis
Pseudomonas aeruginosa = tested on: Pseudomonas aeruginosa
[4] = tested on: Aspergillus flavus KCTC 9471
[5] = tested on: Escherichia coli O157:H7 ATCC 43895
Proteus vulgaris = tested on: Proteus vulgaris
Botrytis cinerea = tested on: Botrytis cinerea
Trichosporon beigelii = tested on: Trichosporon beigelii
Salmonella typhimurium = tested on: Salmonella typhimurium
[6] = tested on: Candida albicans KCTC 7270
Klebsiella pneumoniae = tested on: Klebsiella pneumoniae
[7] = tested on: Acinetobacter baumannii ATCC 19606
[8] = tested on: Klebsiella pneumoniae ATCC 700603
[9] = tested on: Escherichia coli ATCC 25922
[10] = tested on: Pseudomonas aeruginosa ATCC 27853
[11] = tested on: Cryptococcus neoformans ATCC 208821
[12] = tested on: Bacillus subtilis ATCC 6051
Acinetobacter baumannii = tested on: Acinetobacter baumannii
[13] = tested on: Staphylococcus aureus ATCC 43300
[14] = tested on: Klebsiella pneumoniae ATCC BAA-2146
[15] = tested on: Candida albicans ATCC 90028
[16] = tested on: Klebsiella pneumoniae ATCC 13883
[17] = tested on: Erwinia amylovora PMV 6076
[18] = tested on: Aspergillus niger CECT 2694
[19] = tested on: Xanthomonas vesicatoria 2133-2
[20] = tested on: Pseudomonas syringae EPS 94
[21] = tested on: Penicillium expansum EPS 26
[22] = tested on: Rhizopus stolonifer CECT 2344
[23] = tested on: Fusarium oxysporum f. sp. lycopersici ATCC 201829
[24] = tested on: Escherichia coli K-12 594
[25] = tested on: Staphylococcus aureus SR1550
[26] = tested on: Staphylococcus aureus ATCC 6538P
[27] = tested on: Streptococcus sanguinis ATCC 49295
[28] = tested on: Streptococcus gordonii ATCC 10558
[29] = tested on: Streptococcus mutans UA159
[30] = tested on: Streptococcus mutans GS-5
Vibrio fluvialis = tested on: Vibrio fluvialis
Aeromonas hydrophila = tested on: Aeromonas hydrophila
Vibrio parahaemolyticus = tested on: Vibrio parahaemolyticus
Vibrio alginolyticus = tested on: Vibrio alginolyticus
Streptococcus pyogenes = tested on: Streptococcus pyogenes

Question: CC[C@H](C)[C@H](NC(=O)[C@H](CCCCN)NC(=O)[C@H](CO)NC(=O)[C@H](Cc1ccccc1)NC(=O)[C@H](CC(C)C)NC(=O)[C@H](CCCCN)NC(=O)[C@H](CCC(=O)O)NC(=O)[C@H](CC(C)C)NC(=O)[C@H](CCCN=C(N)N)NC(=O)[C@H](CCCCN)NC(=O)[C@H](Cc1ccccc1)NC(=O)[C@@H](NC(=O)[C@H](CCCCN)NC(=O)[C@H](CCCCN)NC(=O)[C@H](C)N)C(C)C)C(=O)N[C@@H](Cc1ccc(O)cc1)C(=O)N[C@@H](CC(N)=O)C(=O)N[C@@H](Cc1ccc(O)cc1)C(=O)N[C@@H](CCCCN)C(N)=O [AKKVFKRLEKLFSKIYNYK] was tested. Which MIC [1] did it give?
Answer: ≥ 35.4 µM

Question: And the MIC (Escherichia coli)?
Answer: 3.13 µM (≈ 7.52 µg/mL)

Question: What about the MIC (Saccharomyces cerevisiae) of the same molecule?
Answer: 25 µM (≈ 60.1 µg/mL)

Question: What about the MIC (Staphylococcus aureus) of the same molecule?
Answer: 3.13 µM (≈ 7.52 µg/mL)

Question: And the MIC [2]?
Answer: 0.78 µM (≈ 1.87 µg/mL)

Question: And the MIC (Fusarium verticillioides)?
Answer: 12.5 µM (≈ 30 µg/mL)

Question: What about the MIC (Bacillus subtilis) of the same molecule?
Answer: 1.56 µM (≈ 3.75 µg/mL)

Question: And the MIC [3]?
Answer: 3.13 µM (≈ 7.52 µg/mL)

Question: And the MIC (Pseudomonas aeruginosa)?
Answer: 3.13 µM (≈ 7.52 µg/mL)

Question: And the MIC [4]?
Answer: ≥ 50 µM

Question: What about the MIC [5] of the same molecule?
Answer: 3.13 µM (≈ 7.52 µg/mL)

Question: And the MIC (Proteus vulgaris)?
Answer: 4.42 µM (≈ 10.6 µg/mL)

Question: What about the MIC (Botrytis cinerea) of the same molecule?
Answer: 6.25 µM (≈ 15 µg/mL)

Question: What about the MIC (Trichosporon beigelii) of the same molecule?
Answer: 1.56 µM (≈ 3.75 µg/mL)

Question: And the MIC (Salmonella typhimurium)?
Answer: 0.39 µM (≈ 0.937 µg/mL)

Question: And the MIC [6]?
Answer: 12.5 µM (≈ 30 µg/mL)

Question: What does the source list for CC[C@H](C)[C@@H]1NC(=O)CNC(=O)[C@H](CCCN=C(N)N)NC(=O)[C@H](Cc2ccc(O)cc2)NC(=O)[C@H](C)NC(=O)[C@H](C(C)C)NC(=O)[C@H](CCCN=C(N)N)NC(=O)[C@H](Cc2ccccc2)NC(=O)[C@@H](NC(=O)[C@H](Cc2c[nH]c3ccccc23)NC(=O)[C@@H](N)CCCCN)CSSC[C@@H](C(=O)N[C@@H](CCCN=C(N)N)C(=O)O)NC(=O)[C@H](CCCN=C(N)N)NC(=O)[C@H](CCCN=C(N)N)NC(=O)[C@H](Cc2ccc(O)cc2)NC(=O)[C@H](C)NC1=O [KWCFRVAYRGIAYRRCR]?
Answer: MIC (Klebsiella pneumoniae): 7.26 µM (≈ 16 µg/mL); MIC [7]: 0.113 µM (≈ 0.25 µg/mL); MIC [8]: 0.907 µM (≈ 2 µg/mL); MIC [9]: 0.0567 µM (≈ 0.125 µg/mL); MIC [10]: 0.454 µM (≈ 0.999 µg/mL); MIC [11]: 0.454 µM (≈ 0.999 µg/mL); MIC (Pseudomonas aeruginosa): 0.907 µM (≈ 2 µg/mL); MIC [12]: 0.0567 µM (≈ 0.125 µg/mL); MIC (Acinetobacter baumannii): 0.113 µM (≈ 0.25 µg/mL); MIC [13]: 0.907 µM (≈ 2 µg/mL); MIC [14]: 0.454 µM (≈ 0.999 µg/mL); MIC [15]: 3.63 µM (≈ 7.99 µg/mL); MIC [16]: 0.113 µM (≈ 0.25 µg/mL)

Question: Which MIC [17] does the source give for CC[C@H](C)[C@H](NC(=O)[C@H](CCCCN)NC(=O)[C@H](CCCCN)NC(=O)[C@H](Cc1ccccc1)NC(=O)[C@H](CC(C)C)NC(=O)[C@H](CCCCN)NC(=O)[C@@H](N)CC(C)C)C(=O)N[C@@H](CC(C)C)C(=O)N[C@@H](CCCCN)C(=O)N[C@H](C(=O)N[C@@H](CC(C)C)C(N)=O)C(C)C [LKLFKKILKVL] here?
Answer: 5.92 µM (≈ 7.94 µg/mL)

Question: And the MIC [18]?
Answer: 22.4 µM (≈ 30 µg/mL)

Question: And the MIC [19]?
Answer: 11 µM (≈ 14.7 µg/mL)

Question: And the MIC [20]?
Answer: 5.92 µM (≈ 7.94 µg/mL)

Question: And the MIC [21]?
Answer: ≥ 35.4 µM

Question: And the MIC [22]?
Answer: ≥ 35.4 µM

Question: What about the MIC [23] of the same molecule?
Answer: 0.424 µM (≈ 0.569 µg/mL)

Question: What does the source list for CC(C)C[C@H](NC(=O)[C@H](CCCN=C(N)N)NC(=O)[C@H](CC(C)C)NC(=O)[C@H](CC(C)C)NC(=O)[C@H](CC(C)C)NC(=O)[C@H](CC(C)C)NC(=O)[C@H](CC(C)C)NC(=O)[C@H](CCCN=C(N)N)NC(=O)[C@H](CC(C)C)NC(=O)[C@@H](N)CCCN=C(N)N)C(=O)N[C@@H](CCCN=C(N)N)C(N)=O [RLRLLLLLRLR]?
Answer: MIC [24]: 24.4 µM (≈ 35 µg/mL); MIC [25]: 24.4 µM (≈ 35 µg/mL); MIC [26]: 1.39 µM (≈ 2 µg/mL)

Question: With CC(C)C[C@H](NC(=O)[C@H](CCCN=C(N)N)NC(=O)[C@H](Cc1ccccc1)NC(=O)[C@H](Cc1ccccc1)NC(=O)[C@@H](N)[C@@H](C)O)C(=O)N[C@@H](Cc1ccccc1)C(=O)N[C@@H](CC(N)=O)C(=O)N[C@@H](CCCN=C(N)N)C(=O)N[C@@H](CO)C(=O)N[C@@H](Cc1ccccc1)C(=O)N[C@H](C(=O)O)[C@@H](C)O [TFFRLFNRSFT] as the molecule, how does the MIC [27] read?
Answer: ≥ 178 µM

Question: What about the MIC [28] of the same molecule?
Answer: ≥ 178 µM

Question: And the MIC [29]?
Answer: ≥ 178 µM

Question: What about the MIC [30] of the same molecule?
Answer: ≥ 178 µM

Question: How did the MIC (Escherichia coli) turn out when CC[C@H](C)[C@H](NC(=O)[C@H](CC(N)=O)NC(=O)[C@H](CC(=O)O)NC(=O)[C@H](Cc1ccc(O)cc1)NC(=O)[C@@H](NC(=O)[C@H](CCCCN)NC(=O)[C@H](Cc1cnc[nH]1)NC(=O)[C@H](CC(C)C)NC(=O)[C@H](CC(C)C)NC(=O)[C@H](Cc1ccccc1)NC(=O)[C@H](CC(N)=O)NC(=O)[C@@H](N)C(C)C)[C@@H](C)CC)C(=O)N[C@@H](CCCN=C(N)N)C(=O)N[C@@H](Cc1ccc(O)cc1)C(=O)N[C@@H](CO)C(=O)O [VNFLLHKIYDNIRYS] was run?
Answer: 4.12 µM (≈ 7.8 µg/mL)

Question: And the MIC (Staphylococcus aureus)?
Answer: > 132 µM

Question: What about the MIC (Vibrio fluvialis) of the same molecule?
Answer: ≥ 132 µM

Question: What about the MIC (Aeromonas hydrophila) of the same molecule?
Answer: 8.23 µM (≈ 15.6 µg/mL)

Question: And the MIC (Vibrio parahaemolyticus)?
Answer: ≥ 33 µM

Question: And the MIC (Vibrio alginolyticus)?
Answer: ≥ 132 µM

Question: What about the MIC (Streptococcus pyogenes) of the same molecule?
Answer: ≥ 33 µM
